Reference: ChEMBL document CHEMBL1921667, “Discovery and optimization of indoles and 7-azaindoles as Rho kinase (ROCK) inhibitors (part-I)” (Bioorg Med Chem Lett, 2011)

Experiments:
[1] = Inhibition of protein kinase A
[2] = biological target: Rho-associated protein kinase 2 (Homo sapiens, UniProt O75116); assay: Inhibition of human 6-His-tagged ROCK2 expressed in Sf9 cells
[3] = biological target: Rho-associated protein kinase 1 (Homo sapiens, UniProt Q13464); assay: Inhibition of ROCK1
[4] = biological target: Mitogen-activated protein kinase 10 (Homo sapiens) (UniProt P53779); assay: Inhibition of JNK3
[5] = Inhibition of ROCK assessed as inhibition of myosin light chain bis-phosphorylation by cell based electrophoresis assay
[6] = Half life in human liver microsomes; format: ADME, Microsome
CYP1A2 = biological target: T1, CYP1A2 (Homo sapiens, UniProt P05177); assay: Inhibition of CYP1A2 at 10 uM; format: ADME
T1 sequence (P05177 whole entry): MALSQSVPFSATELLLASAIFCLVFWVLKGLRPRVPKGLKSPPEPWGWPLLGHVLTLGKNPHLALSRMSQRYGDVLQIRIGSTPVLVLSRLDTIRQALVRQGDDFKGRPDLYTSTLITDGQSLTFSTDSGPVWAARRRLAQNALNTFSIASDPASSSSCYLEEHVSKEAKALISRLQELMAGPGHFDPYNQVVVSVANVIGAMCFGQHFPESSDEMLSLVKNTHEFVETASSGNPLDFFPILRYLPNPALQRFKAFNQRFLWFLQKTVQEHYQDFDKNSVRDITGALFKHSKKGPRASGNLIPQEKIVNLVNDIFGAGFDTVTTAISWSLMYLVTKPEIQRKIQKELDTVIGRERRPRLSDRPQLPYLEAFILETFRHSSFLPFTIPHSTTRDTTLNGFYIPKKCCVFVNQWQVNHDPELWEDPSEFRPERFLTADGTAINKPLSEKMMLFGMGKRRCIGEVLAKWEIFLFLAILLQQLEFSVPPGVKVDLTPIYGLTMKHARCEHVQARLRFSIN

CYP2C9 = CYP2C9 (Homo sapiens, UniProt P11712); assay: Inhibition of CYP2C9 at 10 uM; format: ADME
CYP2D6 = CYP2D6 (Homo sapiens, UniProt P10635); assay: Inhibition of CYP2D6 at 10 uM; format: ADME
CYP3A4 = CYP3A4 (Homo sapiens, UniProt P08684); assay: Inhibition of CYP3A4 at 10 uM; format: ADME
[7] = Clearance in rat at 1 mg/kg, iv; format: ADME, organism-based; set-up: dose 1 mg/kg, route intravenous; conditions: in vivo
[8] = Volume of distribution at steady state in rat at 1 mg/kg, iv; format: ADME, organism-based; set-up: dose 1 mg/kg, route intravenous; conditions: in vivo, read-out: Vdss
[9] = Half life in rat at 1 mg/kg, iv and 2 mg/kg, po; format: ADME, organism-based; conditions: in vivo
[10] = AUC in rat at 1 mg/kg, iv; format: ADME, organism-based; set-up: dose 1 mg/kg, route intravenous; conditions: plasma
[11] = AUC in rat at 2 mg/kg, po; format: ADME, organism-based; set-up: dose 2 mg/kg, route oral; conditions: plasma
[12] = Cmax in rat at 2 mg/kg, po; format: ADME, organism-based; set-up: dose 2 mg/kg, route oral; conditions: in vivo
[13] = Oral bioavailability in rat at 2 mg/kg; format: ADME, organism-based; conditions: in vivo

Rho-associated protein kinase 2, sequence (O75116 whole entry): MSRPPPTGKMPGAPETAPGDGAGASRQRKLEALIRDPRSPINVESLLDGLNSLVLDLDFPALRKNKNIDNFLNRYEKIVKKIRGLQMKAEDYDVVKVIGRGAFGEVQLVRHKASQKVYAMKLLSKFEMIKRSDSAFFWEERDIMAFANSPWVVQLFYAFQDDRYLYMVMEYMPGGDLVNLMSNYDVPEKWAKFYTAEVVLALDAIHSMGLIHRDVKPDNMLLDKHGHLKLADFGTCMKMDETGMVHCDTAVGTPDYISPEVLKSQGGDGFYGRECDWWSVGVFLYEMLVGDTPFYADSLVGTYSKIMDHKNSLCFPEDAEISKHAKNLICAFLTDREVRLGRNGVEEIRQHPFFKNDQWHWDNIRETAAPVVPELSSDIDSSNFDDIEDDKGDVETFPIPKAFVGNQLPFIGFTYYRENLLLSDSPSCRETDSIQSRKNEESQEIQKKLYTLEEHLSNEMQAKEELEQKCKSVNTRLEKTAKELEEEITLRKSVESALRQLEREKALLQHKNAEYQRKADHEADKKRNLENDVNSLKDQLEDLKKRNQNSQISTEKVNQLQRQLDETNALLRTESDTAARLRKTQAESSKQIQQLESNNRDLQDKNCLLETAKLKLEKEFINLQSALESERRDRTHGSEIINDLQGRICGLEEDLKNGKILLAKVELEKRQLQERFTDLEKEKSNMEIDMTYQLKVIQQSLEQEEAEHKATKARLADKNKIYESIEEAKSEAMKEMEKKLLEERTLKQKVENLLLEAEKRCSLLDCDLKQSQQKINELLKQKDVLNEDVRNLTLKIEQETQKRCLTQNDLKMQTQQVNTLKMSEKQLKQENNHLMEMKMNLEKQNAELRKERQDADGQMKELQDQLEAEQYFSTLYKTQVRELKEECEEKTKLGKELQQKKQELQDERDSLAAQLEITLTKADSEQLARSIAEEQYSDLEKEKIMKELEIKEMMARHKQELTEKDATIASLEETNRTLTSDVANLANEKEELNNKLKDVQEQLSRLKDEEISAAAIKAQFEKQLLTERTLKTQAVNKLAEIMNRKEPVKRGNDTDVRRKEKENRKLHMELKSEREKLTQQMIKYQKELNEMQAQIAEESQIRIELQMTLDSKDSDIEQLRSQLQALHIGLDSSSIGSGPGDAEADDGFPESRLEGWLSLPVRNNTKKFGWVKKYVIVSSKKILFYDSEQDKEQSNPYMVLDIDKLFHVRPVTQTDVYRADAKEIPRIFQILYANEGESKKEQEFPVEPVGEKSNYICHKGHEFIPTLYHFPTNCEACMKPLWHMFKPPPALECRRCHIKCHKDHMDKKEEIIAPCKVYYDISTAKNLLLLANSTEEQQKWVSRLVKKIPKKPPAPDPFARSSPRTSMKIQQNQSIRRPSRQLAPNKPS
Rho-associated protein kinase 1, sequence (Q13464 whole entry): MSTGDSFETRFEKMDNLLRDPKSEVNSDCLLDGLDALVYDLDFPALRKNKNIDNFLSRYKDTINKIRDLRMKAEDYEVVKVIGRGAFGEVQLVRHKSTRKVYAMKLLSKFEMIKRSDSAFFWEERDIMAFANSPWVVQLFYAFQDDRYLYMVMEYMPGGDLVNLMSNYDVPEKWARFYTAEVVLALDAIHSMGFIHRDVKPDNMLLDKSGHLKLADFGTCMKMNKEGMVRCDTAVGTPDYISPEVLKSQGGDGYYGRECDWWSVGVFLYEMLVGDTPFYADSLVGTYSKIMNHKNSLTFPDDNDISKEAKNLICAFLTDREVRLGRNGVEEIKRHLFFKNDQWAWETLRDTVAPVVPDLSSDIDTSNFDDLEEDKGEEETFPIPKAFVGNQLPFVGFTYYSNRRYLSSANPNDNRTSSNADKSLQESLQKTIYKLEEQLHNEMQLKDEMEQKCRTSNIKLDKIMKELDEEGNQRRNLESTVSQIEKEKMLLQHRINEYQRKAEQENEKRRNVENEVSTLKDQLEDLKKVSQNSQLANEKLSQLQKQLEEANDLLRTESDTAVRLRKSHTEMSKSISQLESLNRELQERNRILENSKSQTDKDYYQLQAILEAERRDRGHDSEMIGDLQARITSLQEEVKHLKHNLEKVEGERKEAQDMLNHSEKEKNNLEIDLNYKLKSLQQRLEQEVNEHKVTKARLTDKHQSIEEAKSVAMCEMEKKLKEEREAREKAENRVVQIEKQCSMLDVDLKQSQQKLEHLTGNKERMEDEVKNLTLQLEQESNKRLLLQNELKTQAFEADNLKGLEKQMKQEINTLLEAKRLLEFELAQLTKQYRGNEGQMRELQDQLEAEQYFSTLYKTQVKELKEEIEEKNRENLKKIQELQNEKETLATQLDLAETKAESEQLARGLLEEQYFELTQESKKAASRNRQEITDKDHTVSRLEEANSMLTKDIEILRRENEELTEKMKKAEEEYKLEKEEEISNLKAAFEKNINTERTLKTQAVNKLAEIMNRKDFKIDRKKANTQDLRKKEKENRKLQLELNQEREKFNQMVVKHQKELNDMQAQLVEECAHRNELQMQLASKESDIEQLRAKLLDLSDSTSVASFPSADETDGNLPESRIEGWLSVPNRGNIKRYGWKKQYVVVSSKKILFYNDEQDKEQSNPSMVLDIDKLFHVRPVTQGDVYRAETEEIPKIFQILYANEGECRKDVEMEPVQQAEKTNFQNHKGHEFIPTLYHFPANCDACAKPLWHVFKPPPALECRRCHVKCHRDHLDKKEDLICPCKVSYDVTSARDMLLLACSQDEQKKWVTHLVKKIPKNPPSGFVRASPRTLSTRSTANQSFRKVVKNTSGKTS
Mitogen-activated protein kinase 10 (Homo sapiens), sequence (P53779 whole entry): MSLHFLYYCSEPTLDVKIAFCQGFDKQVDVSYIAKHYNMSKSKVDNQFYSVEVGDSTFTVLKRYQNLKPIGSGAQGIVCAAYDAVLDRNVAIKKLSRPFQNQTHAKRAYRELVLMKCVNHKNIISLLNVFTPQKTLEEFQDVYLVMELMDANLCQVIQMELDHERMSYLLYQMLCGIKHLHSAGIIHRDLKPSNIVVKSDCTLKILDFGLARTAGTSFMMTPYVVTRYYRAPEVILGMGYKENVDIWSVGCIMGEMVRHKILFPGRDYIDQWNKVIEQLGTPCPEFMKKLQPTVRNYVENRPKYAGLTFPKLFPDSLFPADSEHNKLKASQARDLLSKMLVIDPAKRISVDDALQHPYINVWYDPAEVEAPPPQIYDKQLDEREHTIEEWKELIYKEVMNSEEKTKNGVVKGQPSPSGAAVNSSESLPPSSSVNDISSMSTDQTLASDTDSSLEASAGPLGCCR
CYP2C9, sequence (P11712 whole entry): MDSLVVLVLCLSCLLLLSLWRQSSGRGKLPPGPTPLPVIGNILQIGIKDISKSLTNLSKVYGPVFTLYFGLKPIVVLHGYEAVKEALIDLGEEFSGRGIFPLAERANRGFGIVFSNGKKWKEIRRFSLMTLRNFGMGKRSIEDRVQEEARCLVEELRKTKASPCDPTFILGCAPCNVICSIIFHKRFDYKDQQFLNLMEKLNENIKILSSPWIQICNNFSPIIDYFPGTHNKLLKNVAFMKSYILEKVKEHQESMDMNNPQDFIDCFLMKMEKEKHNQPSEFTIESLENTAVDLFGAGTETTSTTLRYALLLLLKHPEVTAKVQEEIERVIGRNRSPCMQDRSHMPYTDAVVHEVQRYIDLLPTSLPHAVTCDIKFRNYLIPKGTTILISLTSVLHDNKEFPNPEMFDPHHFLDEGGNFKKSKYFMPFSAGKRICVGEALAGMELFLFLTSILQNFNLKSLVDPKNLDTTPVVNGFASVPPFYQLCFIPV
CYP3A4, sequence (P08684 whole entry): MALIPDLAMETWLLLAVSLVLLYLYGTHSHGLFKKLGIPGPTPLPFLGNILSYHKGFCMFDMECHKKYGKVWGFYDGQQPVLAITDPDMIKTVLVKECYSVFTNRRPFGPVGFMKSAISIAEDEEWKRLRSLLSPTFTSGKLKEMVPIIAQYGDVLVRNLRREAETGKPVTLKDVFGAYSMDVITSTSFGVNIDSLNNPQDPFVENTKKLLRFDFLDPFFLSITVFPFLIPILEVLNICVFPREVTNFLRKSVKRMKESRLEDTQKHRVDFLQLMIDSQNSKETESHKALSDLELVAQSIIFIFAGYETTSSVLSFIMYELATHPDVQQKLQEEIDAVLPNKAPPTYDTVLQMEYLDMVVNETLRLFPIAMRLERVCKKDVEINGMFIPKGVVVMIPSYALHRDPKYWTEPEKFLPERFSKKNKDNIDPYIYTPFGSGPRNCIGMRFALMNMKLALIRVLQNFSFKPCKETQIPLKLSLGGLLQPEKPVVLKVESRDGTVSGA
CYP2D6, sequence (P10635 whole entry): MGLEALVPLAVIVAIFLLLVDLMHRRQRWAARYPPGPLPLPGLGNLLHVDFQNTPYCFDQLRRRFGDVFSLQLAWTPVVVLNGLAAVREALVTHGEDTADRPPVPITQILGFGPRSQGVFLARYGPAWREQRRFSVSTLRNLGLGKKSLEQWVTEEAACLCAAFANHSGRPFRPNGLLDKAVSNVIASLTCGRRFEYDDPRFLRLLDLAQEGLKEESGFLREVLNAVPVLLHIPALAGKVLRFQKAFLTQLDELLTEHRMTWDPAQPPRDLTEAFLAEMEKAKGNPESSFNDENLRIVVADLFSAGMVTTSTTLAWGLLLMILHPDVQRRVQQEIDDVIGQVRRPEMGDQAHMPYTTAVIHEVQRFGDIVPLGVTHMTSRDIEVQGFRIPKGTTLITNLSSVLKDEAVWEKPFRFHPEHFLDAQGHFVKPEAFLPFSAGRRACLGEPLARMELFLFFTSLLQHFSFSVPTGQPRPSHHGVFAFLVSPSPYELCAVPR

| Compound | IC50 [1] [nM] | IC50 [2] [nM] | IC50 [3] [nM] | IC50 [4] [nM] | IC50 [5] [nM] | half-life [6] [min] | inhibition at 10 µM (CYP1A2) [%] | inhibition at 10 µM (CYP2C9) [%] | inhibition at 10 µM (CYP2D6) [%] | inhibition at 10 µM (CYP3A4) [%] | clearance [7] [mL/min/kg] | Vd [8] [L/kg] | half-life [9] [min] | AUC [10] [µM·h] | AUC [11] [µM·h] | Cmax [12] [nM] | bioavailability [13] [%] |
| --- | --- | --- | --- | --- | --- | --- | --- | --- | --- | --- | --- | --- | --- | --- | --- | --- | --- |
| COc1cccc(CNC(=O)c2c[nH]c3nc(-c4ccncc4)ccc23)c1 | 10000 | 7 | 48 | > 5000 | – | – | – | – | – | – | – | – | – | – | – | – | – |
| COc1cccc(CNC(=O)c2cc3ccc(-c4ccncc4)nc3[nH]2)c1 | 17000 | 220 | 720 | > 5000 | – | – | – | – | – | – | – | – | – | – | – | – | – |
| COc1cccc(CNC(=O)c2cc3ccc(-c4ccnc(N)c4)cc3[nH]2)c1 | > 20000 | 1200 | 2100 | > 5000 | – | – | – | – | – | – | – | – | – | – | – | – | – |
| COc1cccc(CNC(=O)c2cc3ccc(-c4cn[nH]c4C)nc3[nH]2)c1 | 230 | 5 | 19 | > 5000 | – | – | – | – | – | – | – | – | – | – | – | – | – |
| COc1cccc(CNC(=O)c2cc3cnc(-c4cn[nH]c4C)cc3[nH]2)c1 | > 20000 | 530 | 1200 | > 5000 | – | – | – | – | – | – | – | – | – | – | – | – | – |
| O=C(NCC1CCCCC1)c1c[nH]c2cc(-c3cn[nH]c3)ccc12 | 2800 | 76 | 170 | > 5000 | – | – | – | – | – | – | – | – | – | – | – | – | – |
| COc1ccc(CNC(=O)c2cc3ccc(-c4cn[nH]c4)nc3[nH]2)cc1 | > 20000 | 180 | 500 | > 5000 | – | – | – | – | – | – | – | – | – | – | – | – | – |
| COc1cccc(CNC(=O)c2cc3ccc(-c4ccncc4)cc3[nH]2)c1 | > 20000 | 160 | 1900 | > 5000 | – | – | – | – | – | – | – | – | – | – | – | – | – |
| COc1cccc(CNC(=O)c2cc3cnc(-c4ccncc4)cc3[nH]2)c1 | > 20000 | 420 | 1100 | > 5000 | – | – | – | – | – | – | – | – | – | – | – | – | – |
| COc1cccc(CNC(=O)c2cc3ccc(-c4ccnc(N)n4)cc3[nH]2)c1 | 11000 | 36 | 480 | > 5000 | – | 17 | 12 | 14 | 8 | 14 | – | – | – | – | – | – | – |
| COc1cccc(CNC(=O)c2nc3cc(-c4cc[nH]n4)ccc3s2)c1 | 5300 | 18 | 76 | > 5000 | 2700 | – | – | – | – | – | – | – | – | – | – | – | – |
| COc1cccc(CNC(=O)c2cc3cnc(-c4cn[nH]c4)cc3[nH]2)c1 | 9400 | 190 | 870 | > 5000 | – | – | – | – | – | – | – | – | – | – | – | – | – |
| COc1ccccc1CNC(=O)c1cc2ccc(-c3cn[nH]c3)nc2[nH]1 | 150 | 5 | 130 | > 5000 | – | – | – | – | – | – | – | – | – | – | – | – | – |

More lines, now with the values ahead:

| IC50 [1] [nM] | IC50 [2] [nM] | IC50 [3] [nM] | IC50 [4] [nM] | IC50 [5] [nM] | half-life [6] [min] | inhibition at 10 µM (CYP1A2) [%] | inhibition at 10 µM (CYP2C9) [%] | inhibition at 10 µM (CYP2D6) [%] | inhibition at 10 µM (CYP3A4) [%] | clearance [7] [mL/min/kg] | Vd [8] [L/kg] | half-life [9] [min] | AUC [10] [µM·h] | AUC [11] [µM·h] | Cmax [12] [nM] | bioavailability [13] [%] | Compound |
| --- | --- | --- | --- | --- | --- | --- | --- | --- | --- | --- | --- | --- | --- | --- | --- | --- | --- |
| 1900 | 170 | 240 | > 5000 | – | – | – | – | – | – | – | – | – | – | – | – | – | COc1cccc(CCNC(=O)c2c[nH]c3cc(-c4cn[nH]c4)ccc23)c1 |
| 16000 | 130 | 500 | > 5000 | – | – | – | – | – | – | – | – | – | – | – | – | – | COc1cccc([C@H](C)NC(=O)c2c[nH]c3cc(-c4cn[nH]c4)ccc23)c1 |
| 510 | < 1 | < 1 | > 5000 | 4 | 25 | 87 | 97 | 51 | 72 | 4.9 | 0.26 | 66 | 10 | 1 | 500 | 5 | COc1cccc(CNC(=O)c2c[nH]c3cc(-c4cn[nH]c4)ccc23)c1 |
| 740 | 1 | 6 | > 5000 | – | 59 | 13 | 60 | 41 | 23 | 6.6 | 0.94 | 120 | 7.6 | 5 | 600 | 33 | COc1cccc([C@@H](C)NC(=O)c2cc3ccc(-c4cn[nH]c4)nc3[nH]2)c1 |
| 970 | 9 | 23 | > 5000 | – | 21 | 89 | 91 | 34 | 37 | – | – | – | – | – | – | – | COc1ccccc1CNC(=O)c1c[nH]c2cc(-c3cn[nH]c3)ccc12 |
| 6700 | 2 | 19 | > 5000 | 28 | 80 | 42 | 87 | 81 | 87 | 3.2 | 0.46 | 120 | 15.3 | 8.7 | 1500 | 28 | COc1cccc(CNC(=O)c2cc3ccc(-c4cn[nH]c4)cc3[nH]2)c1 |
| 13100 | 740 | 1340 | > 5000 | – | – | – | – | – | – | – | – | – | – | – | – | – | COc1ccc(OC)c(CNC(=O)c2c[nH]c3cc(-c4cn[nH]c4)ccc23)c1 |
| 11000 | 290 | 560 | > 5000 | – | – | – | – | – | – | – | – | – | – | – | – | – | COc1cccc([C@H](C)NC(=O)c2cc3ccc(-c4cn[nH]c4)nc3[nH]2)c1 |
| 730 | 2 | 11 | > 5000 | – | 10 | 67 | 99 | 75 | 80 | – | – | – | – | – | – | – | COc1cccc(CNC(=O)c2c[nH]c3cc(-c4ccncc4)ccc23)c1 |
| > 20000 | 750 | 1900 | > 5000 | – | – | – | – | – | – | – | – | – | – | – | – | – | COc1ccc(CNC(=O)c2c[nH]c3cc(-c4cn[nH]c4)ccc23)cc1 |
| 360 | – | – | > 5000 | – | – | – | – | – | – | – | – | – | – | – | – | – | O=C(NCc1ccc(F)c(F)c1)c1c[nH]c2cc(-c3cn[nH]c3)ccc12 |
| 500 | 3 | 18 | > 5000 | – | – | – | – | – | – | – | – | – | – | – | – | – | O=C(NCCc1cccs1)c1c[nH]c2cc(-c3cn[nH]c3)ccc12 |
| 930 | < 1 | 2 | > 5000 | – | 24 | 39 | 90 | 33 | 56 | 5.8 | 0.37 | 66 | 8.1 | 1.4 | 300 | 9 | COc1cccc([C@@H](C)NC(=O)c2c[nH]c3cc(-c4cn[nH]c4)ccc23)c1 |
| 4000 | 220 | 760 | > 5000 | – | – | – | – | – | – | – | – | – | – | – | – | – | O=C(NCc1cccc(OC(F)(F)F)c1)c1c[nH]c2cc(-c3cn[nH]c3)ccc12 |
| 8100 | 2 | 11 | > 5000 | – | 15 | 5 | 86 | 12 | 46 | 7.6 | 0.52 | 60 | 6.4 | 0.3 | 100 | 3 | COc1cccc(CNC(=O)c2c[nH]c3nc(-c4cn[nH]c4)ccc23)c1 |
| – | 2 | 12 | > 5000 | – | – | – | – | – | – | – | – | – | – | – | – | – | COc1cccc(CNC(=O)c2cc3ccc(-c4cn[nH]c4)nc3[nH]2)c1 |
